# In patent US20230398130A1, “METHODS AND COMPOSITIONS FOR DIFFERENTIATING STEM CELLS” (Massachusetts Institute of Technology, priority 2020, published 2023):
# Entries after “also recorded” stand apart in the source; their conditions may differ. Read-outs that look alike come from different tables or passages of the source.
# Columns and labels:
# Paneth cells [1] = assay: Immunofluorescent imaging of organoids: LYZ+ cells per organoid area; assay type: cell-based, murine; conditions: 2 ng/mL Leptomycin B, ENR+CD 3 days
# Protocol: Immunofluorescent imaging. For immunofluorescence staining of organoids, intestinal organoids in Matrigel were fixed with 4% paraformaldehyde, then transferred to centrifuge tube. After washing with PBS, the isolated organoids were permeabilized with 1% Triton X followed by incubation with blocking buffer (1% BSA+3% Donkey Serum+0.2% Triton X in PBS) at RT. The organoids were then stained with primary antibodies and fluorescent dye-labeled secondary antibodies as well as with DAPI. Slides were covered with […]® Mounting Media (VECTOR). The following primary and secondary antibodies were used for the staining: rabbit anti-Lysozyme (1:1000, Thermo Fisher Scientific), rat anti-E-cadherin (1:1000, Thermo Fisher Scientific), Alexa Fluor 488 and 568 secondary antibodies (1:1000, Invitrogen). Images were acquired with a confocal laser scanning microscope (Nikon Eclipse 90i). For the analysis of Lysozyme+ cells per organoid area, the number of counted Lysozyme+ cells were normalized to measured organoid surface area. Image J was used for the data analysis.
# lysozyme (LYZ) = assay: Western blotting of lysozyme in 3D-cultured intestinal organoids; assay type: cell-based, murine; conditions: organoids cultured 6 days in ENR+CV, ENR+CD or ENR
# From the text: Western blotting. ISC-enriched organoids cultured in 3D Matrigel with ENRCV media were passaged to 24-well plate in 3D Matrigel with ENRCV. At day zero, media were replaced to ENR or ENRCD with or without indicated compounds, and media were replaced every other day. At day six, cells were harvested from Matrigel by mechanical disruption and suspended in basal media. Cell pellets were lysed with Pierce© IP lysis buffer (ThermoFisher, 87787) containing Halt™ Protease Inhibitor Cocktail, EDTA-Free (ThermoFisher, 87785) after 3-minute centrifuge at 300×g at 4° C. Cell extracts were resolved by NuPAGE© SDS-PAGE Gel system (ThermoFisher) and electroblotted onto polyvinylidene difluoride membranes using Criterion™ Blotter (Biorad). The membranes were blocked with 2% Blotting-Grade Blocker (Biorad, 1706404) in TBS-T (50 mM Tris-HCl, 150 mM NaCl, and 0.1% Tween 20, pH 8.0) and then probed with appropriate antibodies. Detection was performed using ECL Select™ Western Blotting Detection Reagent (Amersham, 45-000-999) and ImageQuant LAS4000 (GE Healthcare).
# Western blotting. Organoid-containing gel was homogenized in basal medium and centrifuged at 300 rcf for 3 min. Organoid pellet was lysed with ice-cold Pierce IP Lysis Buffer (Thermo Fisher Scientific, #87787) containing Halt Protease Inhibitor Cocktail, EDTA-Free (Thermo Fisher Scientific, #87785) and incubated on ice for 20 min. The lysate was centrifuged at 17,000 rcf for 10 min, and the supernatant was combined with NuPAGE LDS Sample Buffer (Thermo Fisher Scientific, NP0007). Protein concentration was determined by Pierce 660 nm Protein Assay (Thermo Fisher Scientific, #22660) and normalized to the lowest concentration among each sample set. […] Chemiluminescent signals were detected by LAS4000 (GE Healthcare) using Amersham ECL Select Western Blotting Detection Reagent (GE Healthcare, #45-000-999), and total protein signals were obtained by Odyssey Imaging System (LI-COR Biosciences) using REVERT Total Protein Stain Kit (LI-COR Biosciences, #926-11010).
# Paneth cells [2] = assay: Flow cytometry of 3D-cultured intestinal organoids (ENR+CD, 6 days): Paneth cell fraction (lysozyme-positive, CD24-mid); assay type: cell-based, murine; conditions: ENR+CD 6 days; for Paneth cell proportion in organoids: 2 ng/mL Leptomycin B
# Protocol: Flow cytometry analysis (3D culture). ISC-enriched organoids cultured in 3D Matrigel with ENRCV media were passaged to 24-well plate in 3D Matrigel with ENRCV. At day zero, media were replaced to ENRCD with or without indicated compounds, and media were replaced every other day. […] Flow cytometry was performed using an LSR Fortessa (BD; Koch Institute Flow Cytometry Core at MIT). The data were analyzed using FlowJo v10 software.
# Single live cells were selected by several gating strategies and Paneth cells were identified as lysozyme-high, CD24-mid, side scatter-high (SSC-high) (FIG. 27E). […] To evaluate whether the culture media supplements C and D may alter the effects of the 6 hits, Applicants also performed lysozyme assay in the canonical ENR culture condition in 3-D (because Paneth cells exist in an immature state within ENR, Applicants were unable to robustly quantify Paneth cell number via flow cytometry).
# (§1) Flow cytometry. ISC-enriched organoids in 3D Matrigel culture were passaged to a 48-well plate and induced differentiation for 6 days by ENR+CD media containing DMSO or each drug indicated in the figures. DMSO- or drug-containing media were changed every other day. […] After vigorous pipetting and incubation at 37° C. for 15 min, the cell solution was diluted twice with basal media and centrifuged at 300 rcf for 3 min. […] The cell solution was centrifuged again at 300 rcf for 3 min at 4° C. to pellet the cells. […] Cells were centrifuged again for 3 min at 300 rcf and blocked with staining buffer (FACS buffer containing 0.5% Tween20 (Sigma, P2287)) for 15 min at RT in the dark. […] Flow cytometry was performed using an LSR Fortessa (BD; Koch Institute Flow Cytometry Core at MIT). Flow cytometry data were analyzed using FlowJo X v10.6.1 software.
# Live Paneth cells were identified as LYZ-high, CD24-mid, side scatter-high (SSC-high) (FIG. 50F).
# as §1, with “organoids in 3-D Matrigel culture” for “organoids in 3D Matrigel culture”, “to a 24- or 48-well plate” for “to a 48-well plate”
# ISC-enriched organoids [3] = assay: Secondary (validation) screen, 384-well 2.5-D, ENR+CD 6 days, n=8 wells, vs ENR+CD+DMSO control: carbachol-induced lysozyme secretion (LYZ.S); assay type: cell-based, murine
# Protocol: (§2) Drugs were tested at a narrowed dose range around each treatment's identified optimal dose from the primary screen (4× below, 2× above and below).
# (§3) High-throughput screening.
# (§4) Secondary lysozyme secretion assay screen. Confirmatory secondary screening with primary hits was performed using the above 384-well plate method. The screen was conducted with 4-plate replicates with a base media of ENR+CD. Media was supplemented with compound at day 0 and day 3 (n=8 well replicates per dose) at four different doses: two-fold above, two-fold below, and four-fold below the optimal final dose for each respective treatment. Additionally, each plate carried a large number of ENR+DMSO or ENR+CD+DMSO (vehicle) control wells (n=100 for ATP, and n=25 for LYZ.NS and LYZ.S) for robust normalization. ATP, non-stimulated lysozyme activity and CCh-stimulated lysozyme activity was again measured and the collected data was again processed in a custom R-script, per primary screen with slight modification. Values were log10 transformed, and a plate-wise FC was calculated for each well based on the median value of ENR+CD+DMSO (vehicle) control wells to normalize plate to plate variability.
# ISC-enriched organoids [4] = assay: Secondary (validation) screen, 384-well 2.5-D, ENR+CD 6 days, n=8 wells, vs ENR+CD+DMSO control: basal lysozyme secretion (LYZ.NS); assay type: cell-based, murine
# Protocol: as §2, §3, §4
# ISC-enriched organoids [5] = assay: Secondary (validation) screen, 384-well 2.5-D, ENR+CD 6 days, n=8 wells, vs ENR+CD+DMSO control: ATP (CTG); assay type: cell-based, murine
# Protocol: as §2, §3, §4
# ISC-enriched organoids [6] = assay: Primary screen, 384-well 2.5-D organoid differentiation (ENR+CD, 6 days, Target Selective Inhibitor Library, vs whole-plate median): ATP (CellTiter-Glo 3D, CTG); conditions: standard z score of FC
# [7] = system: ISC-enriched organoid cultures; assay type: cell-based
# Protocol: Using the ISC-enriched organoid cultures, Applicants sought to assess the role of vitamin D's multiple metabolites on ISC proliferation and differentiation in vitro. Treatment of ISC-enriched organoid cultures with multiple vitamin D metabolites at 50 nM drives a reduction in cell number after 4 days of exposure (FIG. 45A). This reduction is attributed to reduced ISC self-renewal and differentiation to terminal epithelial cell types. To confirm increased differentiation of ISC-enriched organoids, mRNA markers of epithelial cells were assessed via quantitative PCR (FIG. 45B). […] By enhancing ISC differentiation, Applicants hypothesized that it may be possible to enhance barrier repair or integrity in IBD. Such effect could act synergistically with other known effects of vitamin D, and provide enhanced therapeutic benefit.
# After observing that calcitriol, the primary active vitamin D metabolite, drove the most profound differentiation effect on in vitro ISC cultures, Applicants sought to investigate whether or not this effect is dose-dependent. Again, Applicants used the ISC-enriched organoid culture, and exposed varying concentrations of calcitriol for 4-day treatment periods.
# Given that WNT signaling is central to ISC self-renewal and maintenance, Applicants investigated the role of calcitriol on ISC proliferation and WNT signal activity.
# [8] = calcitriol 1 nM to 100 nM, 4-day treatment
smiles,measurement,setting,value
CCC(=C/[C@H](C)C/C=C/C(C)=C/[C@@H](C)C(=O)[C@@H](C)[C@H](O)[C@@H](C)C/C(C)=C/C(=O)O)/C=C/[C@@H]1OC(=O)C=C[C@@H]1C [Leptomycin B],proportion of Paneth cells (IF imaging),Paneth cells [1],increasing the proportion of Paneth cells
same,LYZ abundance per unit protein (Western blotting),lysozyme (LYZ),appreciably increase LYZ abundance
same,Paneth cell proportion in organoids,Paneth cells [2],statistically significant increases in Paneth cell representation
same,Paneth cell proportion in organoids,Paneth cells [2]; listed as leptomycin B,increased the proportion of PC; also recorded: increasing the proportion of Paneth cells
"Cc1cn(-c2cc(NC(=O)c3ccc(C)c(Nc4nccc(-c5cccnc5)n4)c3)cc(C(F)(F)F)c2)cn1 [Nilotinib (AMN-107), Nilotinib]",Z.LYZ.S,ISC-enriched organoids [3]; Dose 0.10 uM,0.339
same,repSSMD.LYZ.S,ISC-enriched organoids [3]; Dose 0.10 uM,0.652
same,Z.LYZ.S,ISC-enriched organoids [3]; Dose 0.20 uM,0.897
same,repSSMD.LYZ.S,ISC-enriched organoids [3]; Dose 0.20 uM,1.324
same,Z.LYZ.S,ISC-enriched organoids [3]; Dose 0.80 uM,1.099
same,repSSMD.LYZ.S,ISC-enriched organoids [3]; Dose 0.80 uM,0.953
same,Z.LYZ.S,ISC-enriched organoids [3]; dose 0.40 uM,−0.053
same,repSSMD.LYZ.S,ISC-enriched organoids [3]; dose 0.40 uM,−0.055
same,Z.LYZ.NS,ISC-enriched organoids [4]; Dose 0.10 uM,0.734
same,repSSMD.LYZ.NS,ISC-enriched organoids [4]; Dose 0.10 uM,1.309
same,Z.LYZ.NS,ISC-enriched organoids [4]; Dose 0.20 uM,1.283
same,repSSMD.LYZ.NS,ISC-enriched organoids [4]; Dose 0.20 uM,1.683
same,Z.LYZ.NS,ISC-enriched organoids [4]; Dose 0.80 uM,1.317
same,repSSMD.LYZ.NS,ISC-enriched organoids [4]; Dose 0.80 uM,1.063
same,Z.LYZ.NS,ISC-enriched organoids [4]; dose 0.40 uM,0.805
same,repSSMD.LYZ.NS,ISC-enriched organoids [4]; dose 0.40 uM,1.064
same,mature Paneth cell population within organoids,"Paneth cells [2]; hit compound at most potent dose from 2.5-D screening, 3-D culture, vs control",significantly decreased Paneth abundance
same,total cell number,"Paneth cells [2]; hit compound at most potent dose, 3-D culture",significantly increasing total cell number
same,Z.CTG,ISC-enriched organoids [5]; Dose 0.10 uM,0.830
same,repSSMD.CTG,ISC-enriched organoids [5]; Dose 0.10 uM,0.571
same,Z.CTG,ISC-enriched organoids [5]; Dose 0.20 uM,1.098
same,repSSMD.CTG,ISC-enriched organoids [5]; Dose 0.20 uM,0.777
same,Z.CTG,ISC-enriched organoids [5]; Dose 0.80 uM,2.104
same,repSSMD.CTG,ISC-enriched organoids [5]; Dose 0.80 uM,1.535
same,Z.CTG,ISC-enriched organoids [5]; dose 0.40 uM,1.275
same,repSSMD.CTG,ISC-enriched organoids [5]; dose 0.40 uM,0.902
same,Z.CTG,ISC-enriched organoids [6]; Dose 0.08 uM,0.769
same,Z.CTG,ISC-enriched organoids [6]; Dose 0.40 uM,0.831
same,Z.CTG,ISC-enriched organoids [6]; Dose 2.00 uM,0.577
same,Z.CTG,ISC-enriched organoids [6]; Dose 10.00 uM,−0.029
"C=C1/C(=C\C=C2/CCC[C@]3(C)[C@@H]([C@H](C)CCCC(C)(C)O)CC[C@@H]23)C[C@@H](O)C[C@@H]1O [calcitriol, 1α,25-dihydroxyvitamin D3]",ISC differentiation (mRNA markers of epithelial cells),"[7]; 50 nM, 4 days, vs control culture",having the most profound effect
same,cell number,[7]; [8],a decrease in cell number
same,"markers of intestinal epithelial cells (mRNA), ISC differentiation",[7]; [8],an increase in markers of intestinal epithelial cells in a dose-dependent manner
same,"markers of intestinal epithelial cells (mRNA), ISC differentiation","[7]; calcitriol 1 nM to 100 nM, 4-day treatment, listed as Calcitriol","dose-dependent differentiation effect, primarily to goblet cells"
same,cell cycle markers,"[7]; calcitriol, 4 days",a weak connection to cell cycle inhibition
same,proliferation (Ki67),"[7]; calcitriol, 4 days, all doses",minimal change in proliferation at all doses
same,LGR5 expression,"[7]; increasing calcitriol dosage, 4 days",a clear reduction in LGR5
